Assay results as given in ChEMBL document CHEMBL3867487, “Discovery of 2'-α-C-Methyl-2'-β-C-fluorouridine Phosphoramidate Prodrugs as Inhibitors of Hepatitis C Virus” (ACS Med Chem Lett, 2016).

Tests used:
[1] = tested on: Hepatitis C virus; assay: Antiviral activity against HCV JFH-1 infected in human HuH7.5.1 cells after 48 hrs by luciferase reporter gene assay; format: functional, cell-based, Hepacivirus hominis; conditions: genotype 2a JFH-1, Huh-7, 48 h
[2] = Cytotoxicity against human Huh7.5.1 cells after 48 hrs by luciferase reporter gene assay; format: toxicity, cell-based, Huh-7
[3] = tested on: Hepatitis C virus; assay: Antiviral activity against HCV infected in human Huh7 cells assessed as reduction in viral RNA replication after 4 days; format: functional, cell-based, Hepacivirus hominis; conditions: Huh-7, 96 h

Row | Structure (SMILES) | EC50 [1] | CC50 at 48 h [2] | EC90 [3] | EC50 [3]
1 | CC(C)OC(=O)[C@H](Cc1c[nH]c2ccccc12)NP(=O)(OC[C@H]1O[C@@H](n2ccc(=O)[nH]c2=O)[C@@](C)(F)[C@@H]1O)Oc1ccccc1 (some centres undefined) | > 50 µM | > 100 µM | – | –
2 | CC(C)OC(=O)[C@@H](NP(=O)(OC[C@H]1O[C@@H](n2ccc(=O)[nH]c2=O)[C@@](C)(F)[C@@H]1O)Oc1ccccc1)C(C)C (some centres undefined) | > 50 µM | > 100 µM | – | –
3 | C[C@H](NP(=O)(OC[C@H]1O[C@@H](n2ccc(=O)[nH]c2=O)[C@@](C)(F)[C@@H]1O)Oc1ccccc1)C(=O)OCc1ccccc1 (some centres undefined) | > 50 µM | > 100 µM | – | –
4 | CC(C)OC(=O)[C@H](Cc1ccccc1)NP(=O)(OC[C@H]1O[C@@H](n2ccc(=O)[nH]c2=O)[C@@](C)(F)[C@@H]1O)Oc1ccccc1 (some centres undefined) | 33.3 µM | > 100 µM | – | –
5 | COC(=O)[C@H](C)NP(=O)(OC[C@H]1O[C@@H](n2ccc(=O)[nH]c2=O)[C@@](C)(F)[C@@H]1O)Oc1ccccc1 (some centres undefined) | > 50 µM | > 100 µM | – | –
6 | CC(C)OC(=O)[C@@H](C)NP(=O)(OC[C@H]1O[C@@H](n2ccc(=O)[nH]c2=O)[C@@](C)(F)[C@@H]1O)Oc1ccccc1 (some centres undefined) | 34.3 µM | > 100 µM | – | –
7 | CC(C)OC(=O)[C@@H](Cc1c[nH]c2ccccc12)NP(=O)(OC[C@H]1O[C@@H](n2ccc(=O)[nH]c2=O)[C@@](C)(F)[C@@H]1O)Oc1ccccc1 (some centres undefined) | 0.88 µM | > 100 µM | – | –
8 | CC(C)OC(=O)CNP(=O)(OC[C@H]1O[C@@H](n2ccc(=O)[nH]c2=O)[C@@](C)(F)[C@@H]1O)Oc1ccccc1 (some centres undefined) | 22.9 µM | > 100 µM | – | –
9 | C[C@]1(F)[C@H](O)[C@@H](CO)O[C@H]1n1ccc(=O)[nH]c1=O | 14.7 µM | > 100 µM | – | –
10 | CSCC[C@@H](NP(=O)(OC[C@H]1O[C@@H](n2ccc(=O)[nH]c2=O)[C@@](C)(F)[C@@H]1O)Oc1ccccc1)C(=O)OC(C)C (some centres undefined) | > 50 µM | > 100 µM | – | –
11 | CCOC(=O)[C@H](C)NP(=O)(OC[C@H]1O[C@@H](n2ccc(=O)[nH]c2=O)[C@@](C)(F)[C@@H]1O)Oc1ccccc1 (some centres undefined) | > 50 µM | > 100 µM | – | –
12 | C[C@H](NP(=O)(OC[C@H]1O[C@@H](n2ccc(=O)[nH]c2=O)[C@@](C)(F)[C@@H]1O)Oc1ccccc1)C(=O)OC1CCCCC1 (some centres undefined) | > 50 µM | > 100 µM | – | –
13 | CCCCCOC(=O)[C@H](C)NP(=O)(OC[C@H]1O[C@@H](n2ccc(=O)[nH]c2=O)[C@@](C)(F)[C@@H]1O)Oc1ccccc1 (some centres undefined) | > 50 µM | > 100 µM | – | –
14 | CCCCCCOC(=O)[C@H](C)NP(=O)(OC[C@H]1O[C@@H](n2ccc(=O)[nH]c2=O)[C@@](C)(F)[C@@H]1O)Oc1ccccc1 (some centres undefined) | > 50 µM | > 100 µM | – | –
15 | CCCCOC(=O)[C@H](C)NP(=O)(OC[C@H]1O[C@@H](n2ccc(=O)[nH]c2=O)[C@@](C)(F)[C@@H]1O)Oc1ccccc1 (some centres undefined) | > 50 µM | > 100 µM | – | –
16 | CC(C)OC(=O)[C@H](NP(=O)(OC[C@H]1O[C@@H](n2ccc(=O)[nH]c2=O)[C@@](C)(F)[C@@H]1O)Oc1ccccc1)C(C)C (some centres undefined) | 1.82 µM | > 100 µM | – | –
17 | CC(C)OC(=O)[C@H](C)N[P@](=O)(OC[C@H]1O[C@@H](n2ccc(=O)[nH]c2=O)[C@](C)(F)[C@@H]1O)Oc1ccccc1 [SOFOSBUVIR] | 0.12 µM | > 100 µM | 0.42 µM | –
18 | CCCOC(=O)[C@H](C)NP(=O)(OC[C@H]1O[C@@H](n2ccc(=O)[nH]c2=O)[C@@](C)(F)[C@@H]1O)Oc1ccccc1 (some centres undefined) | > 50 µM | > 100 µM | – | –
19 | CSCC[C@H](NP(=O)(OC[C@H]1O[C@@H](n2ccc(=O)[nH]c2=O)[C@@](C)(F)[C@@H]1O)Oc1ccccc1)C(=O)OC(C)C (some centres undefined) | 2.24 µM | > 100 µM | – | –
20 | CC(C)OC(=O)[C@H](C)NP(=O)(OC[C@H]1O[C@@H](n2ccc(=O)[nH]c2=O)[C@@](C)(F)[C@@H]1O)Oc1ccccc1 (some centres undefined) | 34.2 µM | > 100 µM | – | –
21 | C[C@@]1(F)[C@H](O)[C@@H](CO)O[C@H]1n1ccc(N)nc1=O | – | – | – | 4.5 µM
22 | CC(C)OC(=O)[C@@H](Cc1ccccc1)NP(=O)(OC[C@H]1O[C@@H](n2ccc(=O)[nH]c2=O)[C@@](C)(F)[C@@H]1O)Oc1ccccc1 (some centres undefined) | 35.3 µM | > 100 µM | – | –
